Results on 3 compounds are retold here after patent publication US20250127813A1, “COMBINATION DRUG” (OTSUKA PHARMACEUTICAL CO., LTD., priority 2021, published 2025).

The data set concerns NALM6-luc2. The procedure:
6-week-old NOG mice produced by In-Vivo Science Co., Ltd., were obtained, and tumor cells were intravenously transplanted into the mice at 7 weeks of age to prepare tumor-bearing mice. The day before the transplantation, busulfex (BSF) was intraperitoneally administered at 20 mg/kg. During the breeding period, the mice were housed with 5 mice per group and bred in a P2A breeding room set to a temperature of 24° C. (actual measurement: 19.7 to 25.0° C.), humidity of 50% (actual measurement: 38.6 to 58.5%), and illumination of 12 hours/day (8:00 a.m. to 8:00 p.m.). During the breeding period, the mice were allowed free access to radiation-sterilized solid feed for mice (CL-2, produced by Clea Japan, Inc.) and autoclave-sterilized tap water placed in a water bottle.
CD19 CAR-T cells were intravenously administered once according to the group constitution on the same day as grouping. The IAP antagonist also started to be administered on the same day as grouping and was orally or intravenously administered according to the group constitution table.
The evaluation period was set to 3 to 4 weeks. Grouping and pharmacological evaluation were performed based on tumor luminescence values as determined by IVIS (trademark). Luminescence value measurement by IVIS (trademark) and body weight measurement were performed twice a week.
For NALM6-luc2, after resuspension, a portion of the cell suspension was taken, dead cells were stained with AOPI Staining Solution, and the number of viable cells was counted with a blood cell measuring device. A cell suspension was prepared by diluting the cells with RPMI 1640 to 1×10^7 cells/mL, based on the measurement results of viable cell count of the cells. Similarly, in a low tumor volume system, a cell suspension was prepared by diluting the cells with serum-free RPMI 1640 to achieve a concentration of 1×10^6 cells/mL.
After the mice were retained using a retainer, a cell suspension was transplanted at 1×10^6 cells/0.1 mL/body using a 27G Myjector (1 mL, produced by Terumo Corporation) to the tail vein of each mouse with no anesthesia. In the low tumor volume system, a cell suspension at 1×10^5 cells/0.1 mL/body was transplanted.
In accordance with the dosing regimen shown in FIG. 6, NALM6-luc2 was transplanted the day after treating the […] with busulfex. On the third day after the transplantation, luminescence values were measured using the IVIS (trademark) Lumina X5 In-Vivo imaging system (produced by PerkinElmer, Co., Ltd.). Using the luminous values as an indicator and using SAS software R9.4 (produced by SAS Institute Japan), the mice were divided into groups of 5 mice each by the stratified random sampling method.
1) A suspension of CD19 CAR-T cells was administered to the tail vein at the time of grouping. For the dosage, the number of viable CD19 CAR-T cells was counted and a cell suspension prepared according to the group constitution table was administered once at 0.1 mL/body. For the administration, a Myjector syringe with a 27G needle was used.
5) Birinapant was intraperitoneally administered at a dose of 10 mL/kg according to the group composition table. Tolinapant, LCL161, and AT406 were orally administered at a dose of 10 mL/kg according to the group composition table using a sonde in the same manner. For intraperitoneal administration, an insulin syringe with a 26G needle was used in place of the sonde. For oral administration, a needle was used in place of the sonde to administer each drug.
VivoGlo™-luciferin (produced by Promega) was dissolved in D-PBS(−) to achieve a concentration of 30 mg/mL and then cryopreserved at −20° C. under light-shielded conditions. On the day of measurement, dissolved VivoGlo™-luciferin was diluted with an equivalent amount of D-PBS(−) and stored at room temperature under light-shielded conditions until use for testing. Based on the body weight measured in advance, VivoGlo™-luciferin was intraperitoneally administered in a volume of 10 mL/kg.

The mark [1] stands for this setting: LCL161 30 mg/kg qw po + CD19 CAR-T 1×10^5 cells/body iv.

“Also recorded” adds a separate entry of the source.

For the compound `CN[C@@H](C)C(=O)N[C@H](C(=O)N1CCC[C@H]1c1nc(C(=O)c2ccc(F)cc2)cs1)C1CCCCC1` [LCL161, reference compound], the “death of mice under LCL161 alone” value (LCL161 30 mg/kg orally twice a week) is given as “at least half of the mice died”. In addition, under setting [1], the “effect of LCL161 + 1×10^5 cells CD19 CAR-T compared with 1×10^6 cells CD19 CAR-T alone” value was “an effect equivalent to the effect achieved by using 1×10^6 cells of CD19 CAR-T alone was observed on day 14 and thereafter”; the “highest efficacy of combined use of LCL161 compared with combined use of tolinapant” value is “lower than the efficacy achieved by the combined use of tolinapant”. Also, the “combination effect of LCL161 and CD19 CAR-T” value (LCL161 30 mg/kg qw po + CD19 CAR-T 1×10^5 cells/body iv, 30 mg/kg) was “a significant combination effect was observed on day 7 and thereafter; also recorded: showed a combination effect with CD19 CAR-T”. The “toxicity of LCL161 (death, weight loss) in the combination test” value (LCL161 30 mg/kg qw po, combination test with CD19 CAR-T, 30 mg/kg) was “highly toxic; also recorded: at least half of the animals died due to LCL161; also recorded: showed such toxicity as to confirm weight loss and death”. Moreover, where the note is “LCL161 alone, 30 mg/kg orally twice a week”, the “efficacy of LCL161 administered alone” value is recorded as “no effects were exhibited”.

As to `CN[C@@H](C)C(=O)N[C@H]1CN(C(=O)CC(C)C)CC[C@H]2CC[C@@H](C(=O)NC(c3ccccc3)c3ccccc3)N2C1=O` [AT406, reference compound], for the setting “AT406 100 mg/kg qd po + CD19 CAR-T 1×10^5 cells/body iv”, the “effect of AT406 + 1×10^5 cells CD19 CAR-T compared with 1×10^6 cells CD19 CAR-T alone” value was “an effect equivalent to the effect achieved by 1×10^6 cells of CD19 CAR-T alone was observed on day 14 and thereafter”. Further, where the note is “AT406 100 mg/kg qd po + CD19 CAR-T 1×10^5 cells/body iv, 100 mg/kg”, the “combination effect of AT406 and CD19 CAR-T” value is “a combination effect was observed on day 10 and thereafter; also recorded: showed a combination effect with CD19 CAR-T; also recorded: a combination effect profile similar to that of tolinapant”. The “efficacy of AT406 administered alone” value (AT406 alone, 100 mg/kg, daily oral administration) was “showed no efficacy”.

Consider `CC[C@H](NC(=O)[C@H](C)NC)C(=O)N1C[C@@H](O)C[C@H]1Cc1c(-c2[nH]c3cc(F)ccc3c2C[C@@H]2C[C@H](O)CN2C(=O)[C@H](CC)NC(=O)[C@H](C)NC)[nH]c2cc(F)ccc12` [Birinapant, reference compound], for which the “combination effect of birinapant and CD19 CAR-T compared to CD19 CAR-T alone” value (birinapant 12 mg/kg q3-4d ip + CD19 CAR-T 1×10^5 cells/body iv) is “did not increase antitumor effects”. The “efficacy of birinapant administered alone” value (birinapant alone, 12 mg/kg, intraperitoneal administration twice a week) was “showed no efficacy”.
